# Reference: US20210276967A1 (OSPEDALE SAN RAFFAELE S.R.L., priority 2018, published 2021)
# pEC50: −log10 of the molar value.
# Tested on: HBV
# Assay: HBV inhibition in HepAD38 cells, extracellular HBV DNA by direct qPCR
# Assay type: cell-based, hepatitis B virus
# Conditions: Hepatitis B virus; 0.1 μM, HepAD38, 96 hours; read-out: HBV inhibition % (conc μM)
# Text: HepAD38 cell line (Ladner et al., Antimicrob Agents Chemother, 1997, 41, 1715-20) was used for HBV inhibition assays. HepAD38 is a subclone, derived from hepatoblastoma cell line HepG2 (ATCC® Number: HB-8065™), that expresses HBV genome under the transcriptional control of a tetracycline-responsive promoter in a TET-OFF system: addition of tetracycline (TET) or doxycycline suppresses HBV replication, while its removal switches on the process allowing HBV viral particles release in the cell supernatant. HepAD38 cell line is maintained in DMEM/F12, supplemented with 10% of fetal bovine serum, 1% of glutamine, 1% of penicillin/streptomycin, 0.4 mg/ml G418 and 0.3 ug/ml tetracycline. For the HBV inhibition assay, doxycycline-free medium is used in order to allow virion production.
# HBV inhibition activity in vitro was performed in 96 multiwell plates. During the initial (primary) screening compounds were first tested in triplicates at concentrations of 0.1 μM, 0.5 μM and 1 μM. For selected compounds, an 8-point dose-response curve was obtained using 1:2 serial dilutions (starting from 2.5 μM, 1.25 μM or 0.4 μM, depending on the degree of inhibition observed during the primary screening). From the dose-response curves, half maximal effective concentration (EC50) could be calculated (see also below).
# In more detail, compounds—typically dissolved in DMSO stock solutions—were diluted to 2× the final desired concentration in 100 μl of the above medium (without doxycycline) and plated in three replicates in the 96-well plates.
# Simultaneously, HepAD38 cells—extensively pre-washed in tetracycline-free medium in order to induce HBV production—were suspended at 2*10^4 cells in 100 μl of tetracycline-free medium and added to each well of the plate, to yield a final assay volume of 200 μl.
# DMSO, used for stock solutions and compounds dilutions, is always present in the assays at a final concentration of 0.5%.
# Plates were then incubated 96 hours at 37° C. and then subjected to cell viability assays and extracellular HBV quantification, in order to evaluate both the cytotoxic potential and the anti-viral activity of compounds.
# Cytotoxicity was assessed by a commercial fluorescence assay that measures the metabolic activity of cells, directly related to cell viability (Cell Titer Blue, Promega). For each compound, cytotoxicity was evaluated at the same concentration employed to evaluate its anti-HBV activity. Anti-HBV activity was evaluated by quantification of extracellular HBV DNA with direct qPCR. In particular, supernatant was collected and centrifuged for cell debris clarification, viral DNA was extracted from virions by addition of lysis buffer (1 mM 1,4-dithiothreitol, 0.2% sodium dodecyl sulphate) and incubated at 95° C. for 10 min. Samples were then diluted 1:40 and real time PCR amplification was performed with SYBR green assay (Power SYBR™ Green PCR Master Mix-Thermo Fisher Scientific) and specific HBV primer (HBV-DF:5′-[…]-3′ (SEQ ID No. 1), HBV-DR:5′-[…]-3′ (SEQ ID No. 2)).
# All HBV inhibition or antiviral activity data are typically reported in percent (%) relative to a non-treated reference sample. Excel and Graphpad Prism programs are typically used for data elaboration and EC50 calculation.
row,SMILES,inhibition at 0.1 µM [%]
1,"Cc1cc(N)c(S(=O)(=O)N[C@H](C)C(F)(F)F)cc1C(=O)Nc1cc(F)c(F)c(F)c1 [Example E63, (R)-4-amino-2-methyl-N-(3,4,5-trifluorophenyl)-5-(N-(1,1,1-trifluoropropan-2-yl)sulfamoyl)benzamide]",> 50

# Same assay, conditions: Hepatitis B virus; 0.5 μM, HepAD38, 96 hours; read-out: HBV inhibition % (conc μM)
row,SMILES,inhibition at 0.5 µM [%]
1,"Nc1ccc(C(=O)Nc2cc(F)c(F)c(F)c2)cc1S(=O)(=O)N1CCC(O)C1 (centres unmarked) [Example E53, 4-amino-3-((3-hydroxypyrrolidin-1-yl)sulfonyl)-N-(3,4,5-trifluorophenyl)benzamide]",> 50
2,"Nc1ccc(C(=O)Nc2cc(F)c(F)c(F)c2)cc1S(=O)(=O)NC1COC1 [Example E33, 4-amino-3-(N-(oxetan-3-yl)sulfamoyl)-N-(3,4,5-trifluorophenyl)benzamide]",> 50
3,"Nc1ccc(C(=O)Nc2ccc(F)c(Cl)c2)cc1S(=O)(=O)N[C@H]1CC[C@H](O)CC1 [Example E43, trans-4-amino-N-(3-chloro-4-fluorophenyl)-3-(N-(4-hydroxycyclohexyl)sulfamoyl)benzamide]",> 50
4,"Cc1cc(C(=O)Nc2cc(F)c(F)c(F)c2)cc(S(N)(=O)=O)c1N [Example E36, 4-amino-3-methyl-5-sulfamoyl-N-(3,4,5-trifluorophenyl)benzamide]",> 50
5,Cc1cc(NC(=O)c2ccc(N)c(S(=O)(=O)N[C@H]3CC[C@H](O)CC3)c2)ccc1F [Example E46],> 50
6,"Nc1ccc(C(=O)Nc2cc(F)c(F)c(F)c2)cc1S(=O)(=O)NCC1(O)CCCCC1 [Example E39, 4-amino-3-(N-((1-hydroxycyclohexyl)methyl)sulfamoyl)-N-(3,4,5-trifluorophenyl)benzamide]",> 50
7,"CC(C)(C)OC(=O)N1CCC(NS(=O)(=O)c2cc(C(=O)Nc3cc(F)c(F)c(F)c3)ccc2N)CC1 [Example E27, tert-butyl 4-((2-amino-5-((3,4,5-trifluorophenyl)carbamoyl)phenyl)sulfonamido)piperidine-1-carboxylate]",< 50
8,"Cc1cc(N)c(S(N)(=O)=O)cc1C(=O)Nc1ccc(F)c(C(F)(F)F)c1 [Example E67, 4-amino-N-(4-fluoro-3-(trifluoromethyl)phenyl)-2-methyl-5-sulfamoylbenzamide]",> 50
9,"CC(NS(=O)(=O)c1cc(C(=O)Nc2cc(F)c(F)c(F)c2)ccc1N)c1ccccn1 (centres unmarked) [Example E42, 4-amino-3-(N-(1-(pyridin-2-yl)ethyl)sulfamoyl)-N-(3,4,5-trifluorophenyl)benzamide]",< 50
10,"Nc1ccc(C(=O)Nc2cc(F)c(F)c(F)c2)cc1S(=O)(=O)NC1(CO)COC1 [Example E38, 4-amino-3-(N-(3-(hydroxymethyl)oxetan-3-yl)sulfamoyl)-N-(3,4,5-trifluorophenyl)benzamide]",> 50
11,"Nc1ccc(C(=O)Nc2cc(F)c(F)cc2F)cc1S(N)(=O)=O [Example E15, 4-amino-3-sulfamoyl-N-(2,4,5-trifluorophenyl)benzamide]",< 50
12,"Nc1ccc(C(=O)Nc2cc(F)c(F)c(F)c2)cc1S(=O)(=O)N[C@@H]1CC[C@@H](O)C1 (stereo in doubt) [Example E26, 4-amino-3-(N-((1R,3R)-3-hydroxycyclopentyl)sulfamoyl)-N-(3,4,5-trifluorophenyl)benzamide]",> 50
13,"C[C@@H](NS(=O)(=O)c1cc(C(=O)Nc2cc(F)c(F)c(F)c2)ccc1N)C(F)(F)F [Example E18, (R)-4-amino-N-(3,4,5-trifluorophenyl)-3-(N-(1,1,1-trifluoropropan-2-yl)sulfamoyl)benzamide]",> 50
14,"Nc1ccc(C(=O)Nc2ccc(F)c(F)c2)cc1S(N)(=O)=O [Example E4, 4-amino-N-(3,4-difluorophenyl)-3-sulfamoylbenzamide]",> 50
15,"Nc1ccc(C(=O)Nc2ccc(F)c(F)c2F)cc1S(N)(=O)=O [Example E14, 4-amino-3-sulfamoyl-N-(2,3,4-trifluorophenyl)benzamide]",< 50
16,Nc1ccc(C(=O)Nc2cc(F)c(F)c(F)c2)cc1S(=O)(=O)N[C@H]1C[C@H](O)C1 [Example E25],> 50
17,"C[C@H](NS(=O)(=O)c1cc(C(=O)Nc2cc(F)c(F)c(F)c2)ccc1N)C(F)(F)F [Example E19, (S)-4-amino-N-(3,4,5-trifluorophenyl)-3-(N-(1,1,1-trifluoropropan-2-yl)sulfamoyl)benzamide]",> 50
18,"Nc1ccc(C(=O)Nc2ccc(F)c(C(F)F)c2)cc1S(N)(=O)=O [Example E9, 4-amino-N-(3-(difluoromethyl)-4-fluorophenyl)-3-sulfamoylbenzamide]",> 50
19,"Nc1ccc(C(=O)Nc2cc(F)c(F)c(F)c2)cc1S(=O)(=O)N[C@@H]1CC[C@@H](O)C1 (relative stereo) [Example E57, trans-4-amino-3-(N-(3-hydroxycyclopentyl)sulfamoyl)-N-(3,4,5-trifluorophenyl)benzamide]",> 50
20,"Nc1ccc(C(=O)Nc2ccc(F)cc2Cl)cc1S(N)(=O)=O [Example E16, 4-amino-N-(2-chloro-4-fluorophenyl)-3-sulfamoylbenzamide]",< 50
21,"Nc1ccc(C(=O)Nc2ccc(F)c(Cl)c2)cc1S(=O)(=O)N1CCC(O)CC1 [Example E54, 4-amino-N-(3-chloro-4-fluorophenyl)-3-((4-hydroxypiperidin-1-yl)sulfonyl)benzamide]",> 50
22,"Nc1ccc(C(=O)Nc2ccc(F)c(Cl)c2)cc1S(=O)(=O)N1CC(O)C1 [Example E55, 4-amino-N-(3-chloro-4-fluorophenyl)-3-((3-hydroxyazetidin-1-yl)sulfonyl)benzamide]",> 50
23,"Nc1ccc(C(=O)Nc2cc(F)c(F)c(F)c2)cc1S(=O)(=O)NCC(O)CO (centres unmarked) [Example E56, 4-amino-3-(N-(2,3-dihydroxypropyl)sulfamoyl)-N-(3,4,5-trifluorophenyl)benzamide]",> 50
24,"Nc1ccc(C(=O)Nc2cc(F)c(F)c(F)c2)cc1S(=O)(=O)NC1CC1 [Example E20, 4-amino-3-(N-cyclopropylsulfamoyl)-N-(3,4,5-trifluorophenyl)benzamide]",> 50
25,"Cc1cc(NC(=O)c2ccc(N)c(S(N)(=O)=O)c2)ccc1F [Example E12, 4-amino-N-(4-fluoro-3-methylphenyl)-3-sulfamoylbenzamide]",> 50
26,"Nc1ccc(C(=O)Nc2cc(F)c(F)c(F)c2)cc1S(=O)(=O)NC(CO)CO [Example E48, 4-amino-3-(N-(1,3-dihydroxypropan-2-yl)sulfamoyl)-N-(3,4,5-trifluorophenyl)benzamide]",< 50

# Same assay, conditions: Hepatitis B virus; 1 μM, HepAD38, 96 hours; read-out: HBV inhibition % (conc μM)
row,SMILES,inhibition at 1 µM [%]
1,"CNc1ccc(C(=O)Nc2cc(F)c(F)c(F)c2)cc1S(N)(=O)=O [Example E1, 4-(methylamino)-3-sulfamoyl-N-(3,4,5-trifluorophenyl)benzamide]",< 50
2,"CC(C)(C)OC(=O)N[C@H]1CCC[C@H]1NS(=O)(=O)c1cc(C(=O)Nc2cc(F)c(F)c(F)c2)ccc1N [Example E52, tert-butyl ((1S,2R)-2-((2-amino-5-((3,4,5-trifluorophenyl)carbamoyl)phenyl)sulfonamido)cyclopentyl)carbamate]",> 50
3,"CNS(=O)(=O)c1cc(C(=O)Nc2cc(F)c(F)c(F)c2)ccc1N [Example E2, 4-amino-3-(N-methylsulfamoyl)-N-(3,4,5-trifluorophenyl)benzamide]",> 50

# Same assay, conditions: Hepatitis B virus; HepAD38, 8-point dose-response; read-out: HBV inh EC50
row,SMILES,pEC50
1,"Nc1ccc(S(=O)(=O)N[C@H]2CC[C@H](O)CC2)cc1C(=O)Nc1cc(F)c(F)c(F)c1 [Example E61, trans-2-amino-5-(N-(4-hydroxycyclohexyl)sulfamoyl)-N-(3,4,5-trifluorophenyl)benzamide]",> 6.00
2,"Nc1ccc(C(=O)Nc2cc(F)c(F)c(F)c2)cc1S(=O)(=O)N[C@H]1CC[C@H](O)CC1 [Example E21, trans-4-amino-3-(N-(4-hydroxycyclohexyl)sulfamoyl)-N-(3,4,5-trifluorophenyl)benzamide]",> 6.00
